Experimental data: US9527867B2, “Antibacterial biaromatic derivatives” (Actelion Pharmaceuticals Ltd., priority 2013, dated 2016)
Values after ≈ are worked out from the molar mass of the structure shown.

Key:
Assay in all cases: Bacterial growth minimal inhibitory concentration (broth microdilution, CLSI M7-A7)
Assay type in all cases: cell-based
[1] = system: Moraxella catarrhalis A894; conditions: Moraxella catarrhalis, A894, cation-adjusted Mueller-Hinton Broth, quinolone-sensitive strain
Experimental: (§1) Minimal Inhibitory Concentrations (MICs; mg/L) were determined in cation-adjusted Mueller-Hinton Broth by a microdilution method following the description given in “Methods for Dilution Antimicrobial Susceptibility Tests for Bacteria that Grow Aerobically”, Approved standard, 7th ed., Clinical and Laboratory Standards Institute (CLSI) Document M7-A7, Wayne, Pa., USA (2006).
(§2) All Example compounds were tested against several Gram positive and Gram negative bacteria. […] Staphylococcus aureus A798, Enterococcus faecium A949 and Acinetobacter baumannii T6474 are multiply-resistant strains (in particular quinolone-resistant), while Moraxella catarrhalis A894 is a quinolone-sensitive strain and Staphylococcus aureus ATCC29213 is a methicillin-sensitive and quinolone-sensitive strain.

[2] = system: Enterococcus faecium A949; conditions: Enterococcus faecium, A949, cation-adjusted Mueller-Hinton Broth, multiply-resistant strain (in particular quinolone-resistant), read-out: MIC for E. faecium A949
Experimental: as §1, §2

[3] = system: Acinetobacter baumannii T6474; conditions: Acinetobacter baumannii, T6474, cation-adjusted Mueller-Hinton Broth, multiply-resistant strain (in particular quinolone-resistant)
Experimental: as §1, §2

[4] = system: Staphylococcus aureus ATCC29213; conditions: Staphylococcus aureus, ATCC29213, cation-adjusted Mueller-Hinton Broth, methicillin-sensitive and quinolone-sensitive strain, read-out: MIC for S. aureus ATCC29213
Experimental: as §1, §2

[5] = system: Staphylococcus aureus A798; conditions: Staphylococcus aureus, A798, cation-adjusted Mueller-Hinton Broth, multiply-resistant strain (in particular quinolone-resistant), read-out: MIC for S. aureus A798
Experimental: as §1, §2

SMILES: COc1ccc(C#N)c(-c2cccc(CNCC[C@@H]3CN(c4ccc5c(n4)NC(=O)CO5)C(=O)O3)c2)c1 [Example 32, 5-methoxy-3′-({2-[(R)-2-oxo-3-(3-oxo-3,4-dihydro-2H-pyrido[3,2-b][1,4]oxazin-6-yl)-oxazolidin-5-yl]-ethylamino}-methyl)-biphenyl-2-carbonitrile]
- MIC [1]: ≤ 0.016 µg/mL
- MIC [2]: 2 µg/mL (≈ 4 µM)
- MIC [3]: 0.5 µg/mL (≈ 1 µM)
- MIC [4]: 0.125 µg/mL (≈ 0.25 µM)
- MIC [5]: 0.125 µg/mL (≈ 0.25 µM)

SMILES: N#Cc1cccc(-c2cccc(CNCC[C@@H]3CN(c4ccc5c(n4)NC(=O)CO5)C(=O)O3)c2)c1 [Example 33, 3′-({2-[(R)-2-oxo-3-(3-oxo-3,4-dihydro-2H-pyrido[3,2-b][1,4]oxazin-6-yl)-oxazolidin-5-yl]-ethylamino}-methyl)-biphenyl-3-carbonitrile]
- MIC [1]: ≤ 0.016 µg/mL
- MIC [2]: 2 µg/mL (≈ 4.26 µM)
- MIC [3]: 0.125 µg/mL (≈ 0.266 µM)
- MIC [4]: 0.125 µg/mL (≈ 0.266 µM)
- MIC [5]: 0.25 µg/mL (≈ 0.532 µM)

SMILES: COc1cccc(-c2cccc(CNCCc3cn(-c4ccc5c(n4)NC(=O)CO5)c(=O)o3)c2)n1 [Example 35, 6-(5-{2-[3-(6-methoxy-pyridin-2-yl)-benzylamino]-ethyl}-2-oxo-oxazol-3-yl)-4H-pyrido[3,2-b][1,4]oxazin-3-one]
- MIC [1]: ≤ 0.016 µg/mL
- MIC [2]: 1 µg/mL (≈ 2.11 µM)
- MIC [3]: 0.125 µg/mL (≈ 0.264 µM)
- MIC [4]: 0.063 µg/mL (≈ 0.133 µM)
- MIC [5]: 0.063 µg/mL (≈ 0.133 µM)

SMILES: N#Cc1cccc(-c2cccc(CNCCc3cn(-c4ccc5c(n4)NC(=O)CO5)c(=O)o3)c2)c1 [Example 36, 3′-({2-[2-oxo-3-(3-oxo-3,4-dihydro-2H-pyrido[3,2-b][1,4]oxazin-6-yl)-2,3-dihydro-oxazol-5-yl]-ethylamino}-methyl)-biphenyl-3-carbonitrile]
- MIC [1]: ≤ 0.016 µg/mL
- MIC [2]: 0.5 µg/mL (≈ 1.07 µM)
- MIC [3]: 0.063 µg/mL (≈ 0.135 µM)
- MIC [4]: 0.063 µg/mL (≈ 0.135 µM)
- MIC [5]: 0.063 µg/mL (≈ 0.135 µM)

SMILES: COc1ccc(C#N)c(-c2cccc(CNCCc3cn(-c4ccc5c(n4)NC(=O)CO5)c(=O)o3)c2)c1 [Example 37, 5-methoxy-3′-({2-[2-oxo-3-(3-oxo-3,4-dihydro-2H-pyrido[3,2-b][1,4]oxazin-6-yl)-2,3-dihydro-oxazol-5-yl]-ethylamino}-methyl)-biphenyl-2-carbonitrile]
- MIC [1]: ≤ 0.016 µg/mL
- MIC [2]: 1 µg/mL (≈ 2.01 µM)
- MIC [3]: 0.25 µg/mL (≈ 0.503 µM)
- MIC [4]: 0.063 µg/mL (≈ 0.127 µM)
- MIC [5]: 0.063 µg/mL (≈ 0.127 µM)

SMILES: N#Cc1ccc(O)c(-c2cc(CNCC[C@@H]3CN(c4ccc5c(c4)NC(=O)CS5)C(=O)O3)ccn2)c1 [Example 38, 4-hydroxy-3-[4-({2-[(R)-2-oxo-3-(3-oxo-3,4-dihydro-2H-benzo[1,4]thiazin-6-yl)-oxazolidin-5-yl]-ethylamino}-methyl)-pyridin-2-yl]-benzonitrile]
- MIC [1]: ≤ 0.016 µg/mL
- MIC [2]: 0.125 µg/mL (≈ 0.249 µM)
- MIC [3]: 0.063 µg/mL (≈ 0.126 µM)
- MIC [4]: ≤ 0.016 µg/mL
- MIC [5]: ≤ 0.016 µg/mL

SMILES: COc1cccc(-c2cc(CNCC[C@@H]3CN(c4ccc5c(c4)NC(=O)CS5)C(=O)O3)ccn2)c1 [Example 39, 6-[(R)-5-(2-{[2-(3-methoxy-phenyl)-pyridin-4-ylmethyl]-amino}-ethyl)-2-oxo-oxazolidin-3-yl]-4H-benzo[1,4]thiazin-3-one]
- MIC [1]: 0.125 µg/mL (≈ 0.255 µM)
- MIC [2]: 4 µg/mL (≈ 8.15 µM)
- MIC [3]: 2 µg/mL (≈ 4.08 µM)
- MIC [4]: 1 µg/mL (≈ 2.04 µM)
- MIC [5]: 1 µg/mL (≈ 2.04 µM)

SMILES: N#Cc1cccc(-c2cccc(CNCC[C@H]3CN(c4ccc5c(n4)NC(=O)CO5)C(=O)O3)c2)c1 [Example 40, 3′-({2-[(S)-2-oxo-3-(3-oxo-3,4-dihydro-2H-pyrido[3,2-b][1,4]oxazin-6-yl)-oxazolidin-5-yl]-ethylamino}-methyl)-biphenyl-3-carbonitrile]
- MIC [1]: ≤ 0.016 µg/mL
- MIC [2]: 2 µg/mL (≈ 4.26 µM)
- MIC [3]: 0.25 µg/mL (≈ 0.532 µM)
- MIC [4]: 0.125 µg/mL (≈ 0.266 µM)
- MIC [5]: 0.125 µg/mL (≈ 0.266 µM)

SMILES: COc1cccc(-c2cccc(CNCC[C@H]3CN(c4ccc5c(n4)NC(=O)CO5)C(=O)O3)c2)n1 [Example 41, 6-((S)-5-{2-[3-(6-methoxy-pyridin-2-yl)-benzylamino]-ethyl}-2-oxo-oxazolidin-3-yl)-4H-pyrido[3,2-b][1,4]oxazin-3-one]
- MIC [1]: ≤ 0.016 µg/mL
- MIC [2]: 1 µg/mL (≈ 2.1 µM)
- MIC [3]: 0.25 µg/mL (≈ 0.526 µM)
- MIC [4]: 0.063 µg/mL (≈ 0.132 µM)
- MIC [5]: 0.063 µg/mL (≈ 0.132 µM)

SMILES: COc1ccc(C#N)c(-c2cccc(CNCC[C@H]3CN(c4ccc5c(n4)NC(=O)CO5)C(=O)O3)c2)c1 [Example 42, 5-methoxy-3′-({2-[(S)-2-oxo-3-(3-oxo-3,4-dihydro-2H-pyrido[3,2-b][1,4]oxazin-6-yl)-oxazolidin-5-yl]-ethylamino}-methyl)-biphenyl-2-carbonitrile]
- MIC [1]: ≤ 0.016 µg/mL
- MIC [2]: 1 µg/mL (≈ 2 µM)
- MIC [3]: 0.5 µg/mL (≈ 1 µM)
- MIC [4]: 0.063 µg/mL (≈ 0.126 µM)
- MIC [5]: 0.125 µg/mL (≈ 0.25 µM)

SMILES: COc1cccc(-c2cccc(CNCC[C@H]3CN(c4ccc5c(c4)NC(=O)CS5)C(=O)O3)c2)n1 [Example 43, 6-((S)-5-{2-[3-(6-methoxy-pyridin-2-yl)-benzylamino]-ethyl}-2-oxo-oxazolidin-3-yl)-4H-benzo[1,4]thiazin-3-one]
- MIC [1]: ≤ 0.016 µg/mL
- MIC [2]: 2 µg/mL (≈ 4.08 µM)
- MIC [3]: 0.5 µg/mL (≈ 1.02 µM)
- MIC [4]: 0.125 µg/mL (≈ 0.255 µM)
- MIC [5]: 0.063 µg/mL (≈ 0.128 µM)

SMILES: COc1cnnc(-c2cccc(CNCC[C@H]3CN(c4ccc5c(n4)NC(=O)CO5)C(=O)O3)c2)c1 [Example 44, 6-((S)-5-{2-[3-(5-methoxy-pyridazin-3-yl)-benzylamino]-ethyl}-2-oxo-oxazolidin-3-yl)-4H-pyrido[3,2-b][1,4]oxazin-3-one]
- MIC [1]: ≤ 0.016 µg/mL
- MIC [2]: 8 µg/mL (≈ 16.8 µM)
- MIC [3]: 0.25 µg/mL (≈ 0.525 µM)
- MIC [4]: 0.25 µg/mL (≈ 0.525 µM)
- MIC [5]: 0.125 µg/mL (≈ 0.262 µM)

SMILES: N#Cc1ccc(O)c(-c2cccc(CNCC[C@H]3CN(c4ccc5c(n4)NC(=O)CO5)C(=O)O3)c2)c1 [Example 45, 6-hydroxy-3′-({2-[(S)-2-oxo-3-(3-oxo-3,4-dihydro-2H-pyrido[3,2-b][1,4]oxazin-6-yl)-oxazolidin-5-yl]-ethylamino}-methyl)-biphenyl-3-carbonitrile]
- MIC [1]: 0.125 µg/mL (≈ 0.257 µM)
- MIC [2]: > 8 µg/mL
- MIC [3]: 2 µg/mL (≈ 4.12 µM)
- MIC [4]: 2 µg/mL (≈ 4.12 µM)
- MIC [5]: 4 µg/mL (≈ 8.24 µM)

SMILES: N#Cc1cccc(-c2cc(CNCC[C@H]3CN(c4ccc5c(n4)NC(=O)CO5)C(=O)O3)ccn2)c1 [Example 46, 3-[4-({2-[(S)-2-oxo-3-(3-oxo-3,4-dihydro-2H-pyrido[3,2-b][1,4]oxazin-6-yl)-oxazolidin-5-yl]-ethylamino}-methyl)-pyridin-2-yl]-benzonitrile]
- MIC [1]: 0.031 µg/mL (≈ 0.0659 µM)
- MIC [2]: 2 µg/mL (≈ 4.25 µM)
- MIC [3]: 0.25 µg/mL (≈ 0.531 µM)
- MIC [4]: 0.5 µg/mL (≈ 1.06 µM)
- MIC [5]: 0.5 µg/mL (≈ 1.06 µM)

SMILES: N#Cc1cc(O)nc(-c2cccc(CNCC[C@@H]3CN(c4ccc5c(c4)NC(=O)CS5)C(=O)O3)c2)c1 [Example 47, 2-hydroxy-6-[3-({2-[(R)-2-oxo-3-(3-oxo-3,4-dihydro-2H-benzo[1,4]thiazin-6-yl)-oxazolidin-5-yl]-ethylamino}-methyl)-phenyl]-isonicotinonitrile]
- MIC [1]: 0.25 µg/mL (≈ 0.498 µM)
- MIC [2]: > 8 µg/mL
- MIC [3]: 8 µg/mL (≈ 15.9 µM)
- MIC [4]: 4 µg/mL (≈ 7.97 µM)
- MIC [5]: 4 µg/mL (≈ 7.97 µM)

SMILES: COc1ccc(-c2cccc(CNCC[C@H]3CN(c4ccc5c(n4)NC(=O)CO5)C(=O)O3)c2)cc1OC [Example 48, 6-((S)-5-{2-[(3′,4′-dimethoxy-biphenyl-3-ylmethyl)-amino]-ethyl}-2-oxo-oxazolidin-3-yl)-4H-pyrido[3,2-b][1,4]oxazin-3-one]
- MIC [1]: 0.125 µg/mL (≈ 0.248 µM)
- MIC [2]: 16 µg/mL (≈ 31.7 µM)
- MIC [3]: 16 µg/mL (≈ 31.7 µM)
- MIC [4]: 4 µg/mL (≈ 7.93 µM)
- MIC [5]: 4 µg/mL (≈ 7.93 µM)

SMILES: N#Cc1cccc(-c2cc(CNCCc3cn(-c4ccc5c(n4)NC(=O)CO5)c(=O)o3)ccn2)c1 [Example 49, 3-[4-({2-[2-oxo-3-(3-oxo-3,4-dihydro-2H-pyrido[3,2-b][1,4]oxazin-6-yl)-2,3-dihydro-oxazol-5-yl]-ethylamino}-methyl)-pyridin-2-yl]-benzonitrile]
- MIC [1]: 0.031 µg/mL (≈ 0.0662 µM)
- MIC [2]: 8 µg/mL (≈ 17.1 µM)
- MIC [3]: 0.5 µg/mL (≈ 1.07 µM)
- MIC [4]: 1 µg/mL (≈ 2.13 µM)
- MIC [5]: 2 µg/mL (≈ 4.27 µM)

SMILES: O=C1COc2ccc(N3C[C@H](CCNCc4cccc(-c5cccc(OCC6CCC6)c5)c4)OC3=O)nc2N1 [Example 50, 6-((S)-5-{2-[(3′-cyclobutylmethoxy-biphenyl-3-ylmethyl)-amino]-ethyl}-2-oxo-oxazolidin-3-yl)-4H-pyrido[3,2-b][1,4]oxazin-3-one]
- MIC [1]: 0.5 µg/mL (≈ 0.946 µM)
- MIC [2]: 8 µg/mL (≈ 15.1 µM)
- MIC [3]: > 8 µg/mL
- MIC [4]: 4 µg/mL (≈ 7.57 µM)
- MIC [5]: 2 µg/mL (≈ 3.78 µM)

SMILES: COc1cccc(-c2cccc(CNCCc3nn(-c4ccc5c(n4)NC(=O)CO5)c(=O)o3)c2)n1 [Example 51, 6-(5-{2-[3-(6-methoxy-pyridin-2-yl)-benzylamino]-ethyl}-2-oxo-[1,3,4]oxadiazol-3-yl)-4H-pyrido[3,2-b][1,4]oxazin-3-one]
- MIC [1]: ≤ 0.016 µg/mL
- MIC [2]: 2 µg/mL (≈ 4.22 µM)
- MIC [3]: 0.5 µg/mL (≈ 1.05 µM)
- MIC [4]: 0.5 µg/mL (≈ 1.05 µM)
- MIC [5]: 1 µg/mL (≈ 2.11 µM)

SMILES: COc1ccc(C#N)c(-c2cccc(CNCCc3nn(-c4ccc5c(n4)NC(=O)CO5)c(=O)o3)c2)c1 [Example 52, 5-methoxy-3′-({2-[5-oxo-4-(3-oxo-3,4-dihydro-2H-pyrido[3,2-b][1,4]oxazin-6-yl)-4,5-dihydro-[1,3,4]oxadiazol-2-yl]-ethylamino}-methyl)-biphenyl-2-carbonitrile]
- MIC [1]: 0.031 µg/mL (≈ 0.0622 µM)
- MIC [2]: 4 µg/mL (≈ 8.02 µM)
- MIC [3]: 2 µg/mL (≈ 4.01 µM)
- MIC [4]: 0.5 µg/mL (≈ 1 µM)
- MIC [5]: 1 µg/mL (≈ 2.01 µM)
